“And” between values parts separate entries of the source, which are not always exact repeats. Equal entries are not always repeated. Where two headings read alike, the source gives them in different places. Square brackets hold non-standard residues; d marks the D form. Ends that are not written are not given here. Peptide text beside a SMILES is read from it. Phe(4-NH2) = Nc1ccc(C[C@H](N)C(=O)O)cc1; 1Nal = N[C@@H](Cc1cccc2ccccc12)C(=O)O; d2Nal = N[C@H](Cc1ccc2ccccc2c1)C(=O)O; Cha = N[C@@H](CC1CCCCC1)C(=O)O; pGlu = O=C1CC[C@@H](C(=O)O)N1; 12Ado = NCCCCCCCCCCCC(=O)O; Dab = NCC[C@H](N)C(=O)O
Tests used:
[1] = test system: mouse RAW 264.7 cells incubated with E. coli O113 LPS; details: RAW 264.7 cells with E. coli O113 LPS; concentration reversing LPS growth inhibition by 50%
Protocol: (§1) An in vitro LPS neutralization screening assay for evaluation of Domain III derived peptides was developed (as described in co-owned and co-pending U.S. patent application Ser. No. 08/306,473) which provides both a measure of efficacy of each peptide (EC50) and of the toxicity/growth inhibition of each peptide (IC50).
(§2) The cells were counted and their concentration adjusted to 2×10^5 cells/mL and 100 μL aliquots were added to each well of a 96-well microtitre plate. […] This incubation was performed in the absence or presence of peptides in varying concentrations between 25 ng/mL and 50 μg/mL. […] Cell proliferation was quantitatively measured by the addition of 1 μCi/well [^3H]-thymidine 5 hours after the time of initiation of the assay. After the 15-hour incubation, labeled cells were harvested onto glass fiber filters with a cell harvester (Inotech Biosystems, INB-384, Sample Processing and Filter Counting System, Lansing, Mich.).

mouse RAW 264.7 cells = test system: mouse RAW 264.7 cells
Protocol: as §1, §2

[2] = test system: C. albicans (CA-1, Strain SLU-1); experiment: Radial diffusion assay; type: cell-based, Candida albicans; details: for C. albicans pmol/30 mm^2 zone: pmoles of peptide added to well to achieve a 30 mm^2 zone, PROBIT analysis, crude or purified (P′) peptide
Outline: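 Peptides, serially diluted 2-fold in D-PBS (top ~1 mg/mL), diffused 3 h at 37° C into pH 7.4 phosphate-buffered agarose seeded with 1×10^6 CFU/mL yeast, before overnight growth under a 6% Sabouraud overlayer. Net inhibition zones measured after Coomassie staining; PROBIT fit of log pmol vs area gave pmol for 30 mm^2.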

[3] = RAW 264.7 cell growth inhibited by 50%
[4] = nanomoles required to achieve a net 30 mm^2 zone (log titration curve)

Compound | In Vitro LPS Neutralization EC50 [1] | IC50 (toxicity/growth inhibition of peptide) (mouse RAW 264.7 cells; [3]) | C. albicans pmol/30 mm^2 zone [2] | also measured
KKKWAIQLKK-NH2 [XMP.377P] | NA (NA for EC50 means no evidence neutralization of LPS at up to 50 μg/ml) | NA (NA for IC50 means no evidence of decreased RAW cell growth at up to 50 μg/ml) |  | 
CC[C@H](C)[C@H](NC(=O)[C@H](CC(C)C)NC(=O)[C@H](Cc1c[nH]c2ccccc12)NC(=O)[C@H](CCCCN)NC(C)=O)C(=O)N[C@@H](CCN)C(=O)N[C@@H](CC(C)C)C(=O)N[C@@H](Cc1ccccc1)C(=O)N[C@@H](Cc1c[nH]cn1)C(=O)N[C@@H](CCCCN)C(=O)N[C@@H](CCCCN)C(N)=O [XMP.372P] (Ac-KWLI[Dab]LFHKK-NH2) | >25 µg/mL |  |  | IC50 (toxicity/growth inhibition of peptide) (mouse RAW 264.7 cells): >25 µg/mL
H-KVPWLIQLFHKK-NH2 [XMP.392P] | 24.03 ± 2.67 µg/mL | NA (NA for IC50 means no evidence of decreased RAW cell growth at up to 50 μg/ml) |  | 
CC[C@H](C)[C@H](NC(=O)[C@H](CC(C)C)NC(=O)[C@H](Cc1c[nH]c2ccccc12)NC(=O)[C@H](CCN)NC(=O)[C@@H](N)CCN)C(=O)N[C@@H](CCC(N)=O)C(=O)N[C@@H](CC(C)C)C(=O)N[C@@H](CCN)C(=O)N[C@@H](CCN)C(N)=O [XMP 339P] (H-[Dab][Dab]WLIQL[Dab][Dab]-NH2) | NA (NA for EC50 means no evidence neutralization of LPS at up to 50 μg/ml) | NA (NA for IC50 means no evidence of decreased RAW cell growth at up to 50 μg/ml) |  | 
XMP.341P ([pGlu][pGlu]WLIQL[pGlu][pGlu]; not fully specified) | >50 µg⁻¹ mL⁻¹ | NA/NA (NA for IC50 means no evidence of decreased RAW cell growth at up to 50 μg/ml) |  | 
CC[C@H](C)[C@H](NC(=O)[C@H](CC(C)C)NC(=O)[C@@H](Cc1c[nH]c2ccccc12)NC(=O)[C@@H](CCCCN)NC(C)=O)C(=O)N[C@@H](CCC(N)=O)C(=O)N[C@@H](CC(C)C)C(=O)N[C@@H](Cc1ccccc1)C(=O)N[C@@H](Cc1c[nH]cn1)C(=O)N[C@H](CCCCN)C(=O)N[C@H](CCCCN)C(N)=O [XMP.364P] | >25 µg/mL | NA (NA for IC50 means no evidence of decreased RAW cell growth at up to 50 μg/ml) |  | 
CC[C@H](C)[C@H](NC(=O)[C@H](CC(C)C)NC(=O)[C@H](Cc1c[nH]c2ccccc12)NC(=O)[C@H](Cc1ccc(N)cc1)NC(=O)[C@@H](N)Cc1ccc(N)cc1)C(=O)N[C@@H](CCC(N)=O)C(=O)N[C@@H](CC(C)C)C(=O)N[C@@H](Cc1ccc(N)cc1)C(=O)N[C@@H](Cc1ccc(N)cc1)C(N)=O [XMP.340P] (H-[Phe(4-NH2)][Phe(4-NH2)]WLIQL[Phe(4-NH2)][Phe(4-NH2)]-NH2) | >50 µg/mL | NA (NA for IC50 means no evidence of decreased RAW cell growth at up to 50 μg/ml) |  | 
CC[C@@H](C)[C@@H](NC(=O)[C@@H](CC(C)C)NC(=O)[C@@H](Cc1c[nH]c2ccccc12)NC(=O)[C@@H](CCCCN)NC(=O)CCCCCCCCCCCN)C(=O)N[C@H](CCC(N)=O)C(=O)N[C@H](CC(C)C)C(=O)N[C@H](Cc1ccccc1)C(=O)N[C@H](Cc1c[nH]cn1)C(=O)N[C@H](CCCCN)C(=O)N[C@H](CCCCN)C(N)=O [XMP.417] (H-[12Ado][dK][dW][dL][dI][dQ][dL][dF][dH][dK][dK]-NH2; C-terminus assumed) | 3.88 ± 0.20 µg/mL |  |  | IC50 (toxicity/growth inhibition of peptide) (mouse RAW 264.7 cells): 11.26 ± 1.30 µg/mL
H-KKLLLLLKK-NH2 [XMP.385P] | 2.56 ± 0.23 µg/mL |  |  | IC50 (toxicity/growth inhibition of peptide) (mouse RAW 264.7 cells): >25 µg/mL
KWAIQLFHKK-NH2 [XMP.386P] | 9.75 ± 1.02 µg/mL | NA (NA for IC50 means no evidence of decreased RAW cell growth at up to 50 μg/ml) |  | 
H-KVKWLIQLF-NH2 [XMP.295P] | 3.69 ± 0.12 µg/mL |  |  | IC50 (toxicity/growth inhibition of peptide) (mouse RAW 264.7 cells): >25 µg/mL
KKPWAIQLKK-NH2 (C-terminus assumed) [XMP.379P] | NA (NA for EC50 means no evidence neutralization of LPS at up to 50 μg/ml) | NA (NA for IC50 means no evidence of decreased RAW cell growth at up to 50 μg/ml) |  | 
CC[C@@H](C)[C@@H](NC(=O)[C@@H](C)NC(=O)[C@@H](Cc1c[nH]c2ccccc12)NC(=O)[C@@H](CCCCN)NC(=O)[C@H](N)CCCCN)C(=O)N[C@H](CCC(N)=O)C(=O)N[C@H](CC(C)C)C(=O)N[C@H](CCCCN)C(=O)N[C@H](CCCCN)C(N)=O [XMP.375P] (H-[dK][dK][dW][dA][dI][dQ][dL][dK][dK]-NH2) | >50 µg/mL | NA (NA for IC50 means no evidence of decreased RAW cell growth at up to 50 μg/ml) |  | 
CC[C@H](C)[C@H](NC(=O)[C@H](CC(C)C)NC(=O)[C@H](Cc1c[nH]c2ccccc12)NC(=O)[C@H](CCCCN)NC(=O)[C@H]1CCCN1)C(=O)N[C@@H](CCC(N)=O)C(=O)N[C@@H](CC(C)C)C(=O)N[C@@H](CCCCN)C(=O)N[C@@H](CCCCN)C(N)=O [XMP.334P] | NA (NA for EC50 means no evidence neutralization of LPS at up to 50 μg/ml) | NA (NA for IC50 means no evidence of decreased RAW cell growth at up to 50 μg/ml) |  | 
KKLLLLQKK-NH2 [XMP.384P] | NA (NA for EC50 means no evidence neutralization of LPS at up to 50 μg/ml) | NA (NA for IC50 means no evidence of decreased RAW cell growth at up to 50 μg/ml) |  | 
CC[C@@H](C)[C@@H](NC(=O)[C@@H](CCC(N)=O)NC(=O)[C@@H](CC(C)C)NC(=O)[C@@H](CCCCN)NC(=O)[C@H](N)CCCCN)C(=O)N[C@H](C)C(=O)N[C@H](Cc1c[nH]c2ccccc12)C(=O)N[C@H](CCCCN)C(=O)N[C@H](CCCCN)C(N)=O [XMP.376P] (H-[dK][dK][dL][dQ][dI][dA][dW][dK][dK]-NH2) | >50 µg/mL | NA (NA for IC50 means no evidence of decreased RAW cell growth at up to 50 μg/ml) |  | 
H-SKVKWLIQLFHKK-NH2 [XMP.284P] | 4.72 ± 0.08/ μg/ml and 3.57 ± 0.09 μg/ml |  |  | 
CC[C@H](C)[C@H](NC(=O)[C@H](CC(C)C)NC(=O)[C@H](CC1CCCCC1)NC(=O)CNC(=O)[C@@H](NC(=O)[C@H](CCCCN)NC(=O)[C@H](CO)NC(=O)[C@@H](N)CCCCN)C(C)C)C(=O)N[C@@H](CCC(N)=O)C(=O)N[C@@H](CC(C)C)C(=O)N[C@@H](Cc1ccccc1)C(=O)N[C@@H](Cc1c[nH]cn1)C(=O)N[C@@H](CCCCN)C(=O)N[C@@H](CCCCN)C(N)=O [XMP.144] (H-KSKVG[Cha]LIQLFHKK-NH2) |  |  | 695 pmol/30 mm^2 zone | 
XMP.409: S - K - 153-157 - K - K, A @ 154 (L) (SEQ ID NO:240) (SKWAIQLKK) |  |  | 795 pmol/30 mm^2 zone | 
H-GWLIQLFHKKIESALRNKMNS-NH2 [XMP.55] |  |  | >2666 pmol/30 mm^2 zone | 
CC[C@H](C)[C@H](NC(=O)[C@H](CC(C)C)NC(=O)[C@@H](Cc1ccc2ccccc2c1)NC(=O)CNC(=O)[C@@H](NC(=O)[C@H](CCCCN)NC(=O)[C@H](CO)NC(=O)[C@@H](N)CCCCN)C(C)C)C(=O)N[C@@H](CCC(N)=O)C(=O)N[C@@H](CC(C)C)C(=O)N[C@@H](Cc1ccccc1)C(=O)N[C@@H](Cc1c[nH]cn1)C(=O)N[C@@H](CCCCN)C(=O)N[C@@H](CCCCN)C(N)=O [XMP.131] (H-KSKVG[d2Nal]LIQLFHKK-NH2) |  |  | 2493 pmol/30 mm^2 zone | 
XMP.341: PYR - PYR - 153-157 - PYR - PYR (SEQ ID NO:172) ([pGlu][pGlu]WLIQL[pGlu][pGlu]; not fully specified; printed as PYR - PYR - 153-157 - PYR - PYR) |  |  | b (No detectable activity up to 5 μg/well) | 
H-WLIQLKK-NH2 [XMP.322] |  |  | 3,488 pmol/30 mm^2 zone | 
CC[C@H](C)[C@H](NC(=O)[C@H](CC(C)C)NC(=O)[C@H](Cc1c[nH]c2ccccc12)NC(=O)CNC(=O)[C@@H](NC(=O)[C@H](CCCCN)NC(=O)[C@H](CO)NC(=O)[C@@H](N)CCCCN)C(C)C)C(=O)N[C@@H](CCC(N)=O)C(=O)N[C@@H](Cc1cccc2ccccc12)C(=O)N[C@@H](Cc1ccccc1)C(=O)N[C@@H](Cc1c[nH]cn1)C(=O)N[C@@H](CCCCN)C(=O)N[C@@H](Cc1cccc2ccccc12)C(N)=O [XMP.227] (H-KSKVGWLIQ[1Nal]FHK[1Nal]-NH2) |  |  | >2,365 pmol/30 mm^2 zone | 
H-WLIQLF-NH2 [compound 316] |  |  |  | Plate Assay (nmol), pure peptide activity ([2]; HPLC-purified peptide, nanomoles required to achieve a net 30 mm^2 zone (log titration curve)): inactive; Plate Assay (nmol), crude peptide activity [2, 4]: 11.1 nmol
H-KVKWLIQLFH-NH2 [Peptide 291] |  |  |  | Plate Assay (nmol), crude peptide activity [2, 4]: >5.039 nmol
H-KKWLIQL-NH2 [XMP.325] |  |  | 4,135 pmol/30 mm^2 zone | 
H-KSKVGWLISLFHKK-NH2 [XMP.104] |  |  | >5569 pmol/30 mm^2 zone | 
H-WLIQLFH-NH2 [XMP.309] |  |  | b (No detectable activity up to 5 μg/well) | 

Source: patent US6664231B1, “Anti-fungal peptides” (priority 1993, dated 2003)
